What was measured:
[1] = system: gustducin α subunit; test: Trypsin sensitivity assay of gustducin α subunit activation by denatonium-stimulated taste membranes; format: biochemical
Method: To confirm this idea, yet another trypsin sensitivity assay was utilized.
Five μl aliquots of in vitro translated gustducin α subunit were incubated with 5 μg of purified taste membranes or control non-taste membranes, 0.1 mM GDP, 1 μM GTPγS, with or without 5 mM of the bitter compound denatonium, plus a 10 μl aliquot of cotranslated β1/gustducin γ subunit or β2/γ2 dimer, or 10 μl rabbit reticulocyte lysate (the minus βγ control) for 1 hour at 30° C., followed by digestion with trypsin as described in Ming et al., Proc. Natl. Acad. Sci. USA, 95: 8933–8938 (1998).

[2] = system: murine taste tissue; test: Rapid time course quench-flow IP3 generation in murine taste tissue; format: biochemical, mouse; settings: addition to murine taste tissue homogenate supernatant
Method: To confirm that gustducin γ subunit does indeed function in taste transduction rapid time course quench-flow experiments were carried out essentially as described in Tarelius et al., pp. 193–202 in Spielman et al., Eds., Experimental Cell Biology of Taste and Olfaction. Current Techniques & Protocols, CRC Press, Boca Raton (1995). […] Furthermore, it has been shown that the denatonium response depends upon a novel phospholipase C (PLC) β2 isotype specifically expressed in taste receptor cells.
Tongues were excised from 6 to 8 week old female SWR mice, and lingual papillae removed. One vallate and two foliate papillae and nongustatory control tissue from the dorsal eminence of the peeled epithelium were placed in ice-cold MOPS buffer pH 6.9 (50 mM MOPS, 100 mM NaCl, 0.081 mM CaCl2 and 2.5 mM MgCl2), containing 10 mM EGTA, 1 mM DTT, and a protease inhibitor cocktail [1 mg/ml, specific for serine, cysteine, aspartic and metallo-proteinases (Sigma)]. Tissue collected from twenty-five tongues was homogenized in MOPS-EGTA buffer pH 6.9, without the enzyme inhibitors, and centrifuged (1000×g for 20 min. at 4° C.). The recovered supernatant (at a protein concentration of about 30 μg/ml), was used for rapid kinetic experiments. […]

[3] = system: murine taste tissue; settings: shown previously; cited from earlier work
[4] = taste receptor-containing membranes stimulated by 5 mM denatonium

| Molecule | enhancement of activation of gustducin α subunit ([1]; control non-taste membranes) | enhancement of activation of gustducin α subunit [1, 4] | generation of IP3 relative to basal level [2] | generation of IP3 in control non-taste tissue [3] |
| --- | --- | --- | --- | --- |
| β1/gustducin γ subunit: cotranslated β1/gustducin γ subunit dimer | did not enhance activation | enhanced activation |  |  |
| CC[N+](CC)(CC(=O)Nc1c(C)cccc1C)Cc1ccccc1 [denatonium benzoate] |  |  | slightly more than twice the basal level | not in control non-taste tissue |
| β2/γ2: cotranslated β2/γ2 dimer [reference compound] |  | did not enhance activation |  |  |
| CC(=O)OC[C@H]1O[C@@](COC(C)=O)(O[C@H]2O[C@H](COC(C)=O)[C@@H](OC(C)=O)[C@H](OC(C)=O)[C@H]2OC(C)=O)[C@@H](OC(C)=O)[C@@H]1OC(C)=O [sucrose octa-acetate] |  |  |  | not in control non-taste tissue |

From patent US7314716B2, “Gustducin γ subunit materials and methods” (Mount Sinai School of Medicine, priority 1999, dated 2008)
